# Test results as given in patent publication EP2928896B1, “SOLID FORM OF DIHYDRO-PYRIDO-OXAZINE DERIVATIVE” (NOVARTIS AG, priority 2012, dated 2014).
# How the values were obtained:
# PI3K alpha = PI3K alpha (Homo sapiens, UniProt P42336); experiment: Enzymatic PI3K alpha isoform inhibition (lipid kinase activity, Kinase-Glo luminescence / ATP depletion); format: biochemical
# Excerpt: The reaction is started by the addition of PI3 kinase, e.g. PI3 kinase δ.
# The reaction is started by the addition of ATP.
# PI3Kδ = molecular target: T1, PI3Kδ (Homo sapiens, UniProt O00329); experiment: PI3K-mediated Akt 1/2 (S473) phosphorylation in Rat-1 cells overexpressing myristoylated PI3K delta (AlphaScreen SureFire); format: cell-based
# T1 construct: expressed in transfected cells
# T1 sequence (O00329 1-1044): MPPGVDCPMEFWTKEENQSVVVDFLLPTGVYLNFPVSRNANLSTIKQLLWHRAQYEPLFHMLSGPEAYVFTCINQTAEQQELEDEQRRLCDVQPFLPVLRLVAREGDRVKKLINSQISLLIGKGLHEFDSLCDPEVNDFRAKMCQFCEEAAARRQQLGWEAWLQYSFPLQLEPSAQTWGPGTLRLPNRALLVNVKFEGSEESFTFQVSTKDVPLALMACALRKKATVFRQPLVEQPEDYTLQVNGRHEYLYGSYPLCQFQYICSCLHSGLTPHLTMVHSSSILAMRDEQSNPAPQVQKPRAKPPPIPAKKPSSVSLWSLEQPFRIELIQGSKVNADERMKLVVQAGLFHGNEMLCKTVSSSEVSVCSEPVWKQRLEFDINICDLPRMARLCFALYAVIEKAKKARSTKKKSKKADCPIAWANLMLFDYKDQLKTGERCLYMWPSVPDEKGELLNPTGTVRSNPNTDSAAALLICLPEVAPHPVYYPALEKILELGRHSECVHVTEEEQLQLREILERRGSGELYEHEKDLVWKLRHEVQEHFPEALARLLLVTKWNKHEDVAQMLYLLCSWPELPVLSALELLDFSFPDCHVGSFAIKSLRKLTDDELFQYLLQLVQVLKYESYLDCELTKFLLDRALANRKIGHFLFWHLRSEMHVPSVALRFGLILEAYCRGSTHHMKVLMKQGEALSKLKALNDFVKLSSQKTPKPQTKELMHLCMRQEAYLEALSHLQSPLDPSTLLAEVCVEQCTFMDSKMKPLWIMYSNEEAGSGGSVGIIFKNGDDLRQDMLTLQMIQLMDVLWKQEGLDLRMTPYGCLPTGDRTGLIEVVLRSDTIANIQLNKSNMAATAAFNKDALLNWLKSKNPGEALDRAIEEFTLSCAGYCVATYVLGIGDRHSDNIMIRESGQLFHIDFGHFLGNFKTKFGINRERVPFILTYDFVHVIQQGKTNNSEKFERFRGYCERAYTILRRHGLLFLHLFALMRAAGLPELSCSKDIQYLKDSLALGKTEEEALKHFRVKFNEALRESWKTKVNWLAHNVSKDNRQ
# Experimental: Rat-1 cells stably overexpressing a myristoylated form of the catalytic subunit of human phosphoinositide-3 kinase (PI3K) alpha, beta or delta were plated in 384-well plates at a density of 7500 (PI3K alpha), 6200 (PI3K beta), or 4000 (PI3K delta) cells in 30ul complete growth medium (Dulbecco's modified Eagle's medium (DMEM high glucose) supplemented with 10% (v/v) fetal bovine serum, 1% (v/v) MEM non essential amino acids, 10mM HEPES, 2mM L-glutamine, 10 µg/mL puromycin and 1% (v/v) Penicillin/Streptomycin) and were incubated at 37%C / 5%CO2 / 95% humidity for 24h. Compounds were diluted in 384-well compound plates to obtain 8-point serial dilutions for 40 test compounds in 90% DMSO, as well as 4 reference compounds plus 16 high controls and 16 low (inhibited) controls. Predilution plates were prepared by dispensing pipetting 250 nl of compound solutions into 384-well polypropylen plates using a Hummingwell nanoliter dispensor. Compounds were prediluted by the addition of 49.75 ul complete growth medium. 10ul of prediluted compound solution were transferred to the cell plate using a 384-well pipettor, resulting in a final DMSO concentration of 0.11%. […]
# For detection of p-AKT(Ser473), the SureFire® p-Akt 1/2 (Ser473) Assay Kit (PerkinElmer, U.S.A) was used. […] The plate was read on an AlphaScreen® compatible plate reader, using standard AlphaScreen® settings.
# PI3K delta = molecular target: T2, PI3K delta (Homo sapiens, UniProt O00329); experiment: Enzymatic PI3K delta isoform inhibition (lipid kinase activity, Kinase-Glo luminescence / ATP depletion); format: biochemical
# T2 construct: for the full-length p110-d subunit are generated and fused by overlapping PCR; p85 iSH2 (inter SH2 domain) fusion partner (N); His tag (C); made in house; host or cells: baculovirus; Tn5 (Trichoplusia ni) or TiniPro insect cells
# T2 sequence (O00329 with tags, fused parts or gaps limits assumed): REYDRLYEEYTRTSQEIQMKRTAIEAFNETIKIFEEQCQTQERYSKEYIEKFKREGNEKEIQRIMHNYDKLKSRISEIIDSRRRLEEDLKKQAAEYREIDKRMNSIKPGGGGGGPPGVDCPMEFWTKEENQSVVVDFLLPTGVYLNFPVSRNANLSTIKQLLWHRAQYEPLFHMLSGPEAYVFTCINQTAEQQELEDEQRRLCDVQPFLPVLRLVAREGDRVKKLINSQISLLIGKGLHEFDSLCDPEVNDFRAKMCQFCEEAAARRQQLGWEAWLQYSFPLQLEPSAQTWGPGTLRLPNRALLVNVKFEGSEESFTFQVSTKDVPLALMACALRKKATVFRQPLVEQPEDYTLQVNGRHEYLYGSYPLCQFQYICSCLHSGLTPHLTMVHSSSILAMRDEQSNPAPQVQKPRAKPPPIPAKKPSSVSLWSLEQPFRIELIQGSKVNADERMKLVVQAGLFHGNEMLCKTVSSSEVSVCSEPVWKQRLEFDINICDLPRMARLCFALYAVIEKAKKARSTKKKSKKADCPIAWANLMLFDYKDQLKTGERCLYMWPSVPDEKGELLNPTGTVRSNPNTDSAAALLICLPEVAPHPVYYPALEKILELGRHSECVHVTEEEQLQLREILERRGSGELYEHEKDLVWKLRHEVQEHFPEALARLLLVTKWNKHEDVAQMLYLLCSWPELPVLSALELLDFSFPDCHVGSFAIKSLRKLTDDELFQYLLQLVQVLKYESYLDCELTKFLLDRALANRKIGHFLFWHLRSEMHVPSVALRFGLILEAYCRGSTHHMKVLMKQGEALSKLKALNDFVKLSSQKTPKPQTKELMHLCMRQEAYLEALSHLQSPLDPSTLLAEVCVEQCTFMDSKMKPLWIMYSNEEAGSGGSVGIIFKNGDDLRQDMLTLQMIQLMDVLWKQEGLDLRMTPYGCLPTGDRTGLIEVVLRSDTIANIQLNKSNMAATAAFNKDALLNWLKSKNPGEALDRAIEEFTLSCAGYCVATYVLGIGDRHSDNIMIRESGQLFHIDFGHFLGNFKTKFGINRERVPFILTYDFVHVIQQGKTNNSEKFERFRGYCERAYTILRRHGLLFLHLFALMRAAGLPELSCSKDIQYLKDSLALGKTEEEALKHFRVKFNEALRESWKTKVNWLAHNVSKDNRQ
# PI3K alpha, sequence (P42336 with tags, fused parts or gaps limits assumed): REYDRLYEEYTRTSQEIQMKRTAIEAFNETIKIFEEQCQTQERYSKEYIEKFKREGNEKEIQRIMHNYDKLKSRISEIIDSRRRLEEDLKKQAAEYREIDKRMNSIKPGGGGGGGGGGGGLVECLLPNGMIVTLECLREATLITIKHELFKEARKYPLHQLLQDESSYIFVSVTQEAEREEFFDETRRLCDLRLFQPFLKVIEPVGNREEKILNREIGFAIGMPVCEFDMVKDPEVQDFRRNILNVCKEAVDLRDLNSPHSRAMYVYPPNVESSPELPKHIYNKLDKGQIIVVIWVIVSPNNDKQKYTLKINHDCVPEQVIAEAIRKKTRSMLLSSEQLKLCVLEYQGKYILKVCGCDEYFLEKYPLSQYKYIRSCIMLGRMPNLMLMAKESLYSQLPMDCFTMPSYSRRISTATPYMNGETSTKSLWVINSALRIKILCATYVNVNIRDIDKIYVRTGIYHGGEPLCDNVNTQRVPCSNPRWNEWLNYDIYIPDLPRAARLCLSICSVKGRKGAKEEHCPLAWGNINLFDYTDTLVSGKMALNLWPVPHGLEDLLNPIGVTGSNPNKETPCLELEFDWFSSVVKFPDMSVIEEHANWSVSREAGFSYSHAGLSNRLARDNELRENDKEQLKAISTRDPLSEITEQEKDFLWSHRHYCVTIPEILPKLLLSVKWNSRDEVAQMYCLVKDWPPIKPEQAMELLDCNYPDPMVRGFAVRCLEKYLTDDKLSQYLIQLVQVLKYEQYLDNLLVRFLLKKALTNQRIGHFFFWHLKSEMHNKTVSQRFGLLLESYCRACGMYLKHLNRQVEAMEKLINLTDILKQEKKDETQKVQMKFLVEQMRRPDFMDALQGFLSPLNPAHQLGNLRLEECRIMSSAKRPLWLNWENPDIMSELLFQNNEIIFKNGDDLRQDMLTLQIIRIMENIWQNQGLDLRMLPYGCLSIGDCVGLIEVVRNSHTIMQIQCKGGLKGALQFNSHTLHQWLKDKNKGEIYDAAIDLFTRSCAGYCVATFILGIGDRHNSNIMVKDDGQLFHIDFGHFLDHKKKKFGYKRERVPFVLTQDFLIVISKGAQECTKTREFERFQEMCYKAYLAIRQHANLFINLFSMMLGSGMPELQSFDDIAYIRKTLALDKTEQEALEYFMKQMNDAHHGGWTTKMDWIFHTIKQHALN
structure (smiles),measurement,setting,value
"COc1ncc(N2CCOc3cnc(O[C@H]4CCN(C(=O)C5CCS(=O)(=O)CC5)C4)cc32)cc1C [Example F1, (1,1-Dioxo-hexahydro-1lambda*6*-thiopyran-4-yl)-{(S)-3-[1-(6-methoxy-5-methyl-pyridin-3-yl)-2,3-dihydro-1H-pyrido[3,4-b][1,4]oxazin-7-yloxy]-pyrrolidin-1-yl}-methanone]",IC50,PI3K alpha,109 nM
same,IC50,PI3Kδ,11 nM
same,IC50,PI3K delta,3 nM
